# Results taken from PubChem BioAssay (NCI).
#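 Cultured in 96-well plates, cells were exposed to test compound for 48 hours across five concentrations. TGI marks complete inhibition of growth.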
# Columns and labels:
# Test in all cases: NCI anticancer screen, dose series, 48 h
# SW-620 colon = tested on: SW-620 colon
# NCI-H522 lung = tested on: NCI-H522 lung
# RPMI-8226 leukemia = tested on: RPMI-8226 leukemia
# HCC-2998 colon = tested on: HCC-2998 colon
# EKVX NSCLC = tested on: EKVX NSCLC
# SK-MEL-2 melanoma = tested on: SK-MEL-2 melanoma
# LOX IMVI melanoma = tested on: LOX IMVI melanoma
# SK-OV-3 ovarian = tested on: SK-OV-3 ovarian
# UO-31 renal = tested on: UO-31 renal
# MCF7 breast = tested on: MCF7 breast
# UACC-257 melanoma = tested on: UACC-257 melanoma
# MDA-MB-231 breast = tested on: MDA-MB-231 breast
# T-47D breast = tested on: T-47D breast
# A498 renal = tested on: A498 renal
# CCRF-CEM leukemia = tested on: CCRF-CEM leukemia
SMILES,TGI (SW-620 colon) [µM],TGI (NCI-H522 lung) [µM],TGI (RPMI-8226 leukemia) [µM],TGI (HCC-2998 colon) [µM],TGI (EKVX NSCLC) [µM],TGI (SK-MEL-2 melanoma) [µM],TGI (LOX IMVI melanoma) [µM],TGI (SK-OV-3 ovarian) [µM],TGI (UO-31 renal) [µM],TGI (MCF7 breast) [µM],TGI (UACC-257 melanoma) [µM],TGI (MDA-MB-231 breast) [µM],TGI (T-47D breast) [µM],TGI (A498 renal) [µM],TGI (CCRF-CEM leukemia) [µM]
Cc1c2c(n(CCc3ccccc3)c1C)NN=C(C#N)S2(=O)=O,> 100,> 100,> 100,> 100,> 100,> 100,> 100,> 100,> 100,> 100,> 100,> 100,> 100,,
C[Si](C)(C)OC1c2[nH]c3ccccc3c2CN2C(=O)CCC12 (configuration not stated),> 100,> 100,> 100,> 100,> 100,> 100,> 100,> 100,> 100,> 100,> 100,> 100,> 100,> 100,
CCOC(=O)CCC(NC(=O)c1ccc(Nc2nc3cc(C(F)(F)F)ccc3nc2-c2ccccc2)cc1)C(=O)OCC (configuration not stated),> 100,,> 100,> 100,> 100,> 100,> 100,> 100,> 100,> 100,> 100,> 100,> 100,> 100,> 100
CN(C)CCNc1ccc2c(=O)n(CCN(C)C)c(=O)n3c4ccc(N)cc4c(=O)c1c23,0.637,0.0832,,0.809,0.593,0.496,0.283,2.7,0.346,0.242,2.51,0.866,4.64,2.37,0.16
CC1OC(O[C@H]2CC[C@]3(C)[C@H]4CC=C5[C@@H]6[C@@H](C)[C@H](C)CC[C@]6(C(=O)O)CC[C@@]5(C(=O)O)[C@]4(C)CC[C@H]3C2(C)C)C(O)C(O)C1O (some centres not stated),> 75,> 75,,> 75,,> 75,> 75,> 75,> 75,> 75,> 75,> 75,> 75,> 75,> 75
Cc1sc2nc3n(c(=O)c2c1C)N=C(c1ccc(Cl)cc1)CS3,> 100,> 100,> 100,> 100,> 100,,> 100,> 100,> 100,> 100,> 100,> 100,> 100,> 100,> 100
O=C1N=C(c2ccccc2)O/C1=C\c1ccccc1,> 100,> 100,> 100,> 100,,> 100,> 100,> 100,> 100,> 100,> 100,> 100,> 100,> 100,
O=C(CCCn1ccnc1[N+](=O)[O-])NCCn1ccnc1,> 100,> 100,,> 100,,> 100,,> 100,> 100,> 100,> 100,> 100,> 100,> 100,> 100
